Patent US20240426807A1, “SCREENING SYSTEM” (Givaudan SA, priority 2021, published 2024)
“Also recorded” adds a separate entry of the source.

Tests used:
[1] = biological target: T1, OR5A2 (clone 3) (Homo sapiens, UniProt Q8NGI9); assay: Ligand-induced puromycin resistance of isolated clone 3 containing OR5A2; format: cell-based; conditions: clone 3 (OR5A2), 11 concentrations of puromycin, co-treated with olfactory ligands
T1 construct: expressed in transfected cells; clone 3 selected with musk ambrette and puromycin
T1 sequence (Q8NGI9 with tags, fused parts or gaps): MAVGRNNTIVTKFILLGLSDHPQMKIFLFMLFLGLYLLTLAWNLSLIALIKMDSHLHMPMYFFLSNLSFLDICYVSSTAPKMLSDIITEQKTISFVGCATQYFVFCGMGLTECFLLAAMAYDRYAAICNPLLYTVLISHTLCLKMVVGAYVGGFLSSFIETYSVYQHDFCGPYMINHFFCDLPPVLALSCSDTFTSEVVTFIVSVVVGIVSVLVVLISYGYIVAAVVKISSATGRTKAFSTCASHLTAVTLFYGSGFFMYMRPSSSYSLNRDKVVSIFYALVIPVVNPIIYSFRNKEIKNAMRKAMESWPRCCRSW

[2] = biological target: T2, OR5AN1 (Homo sapiens, UniProt Q8NGI8); assay: Ligand-induced blasticidin resistance, OR5AN1 cells (pGL4.29-CRE-BLAST-OR); format: cell-based
T2 construct: expressed in transfected cells
T2 sequence (Q8NGI8 1-311): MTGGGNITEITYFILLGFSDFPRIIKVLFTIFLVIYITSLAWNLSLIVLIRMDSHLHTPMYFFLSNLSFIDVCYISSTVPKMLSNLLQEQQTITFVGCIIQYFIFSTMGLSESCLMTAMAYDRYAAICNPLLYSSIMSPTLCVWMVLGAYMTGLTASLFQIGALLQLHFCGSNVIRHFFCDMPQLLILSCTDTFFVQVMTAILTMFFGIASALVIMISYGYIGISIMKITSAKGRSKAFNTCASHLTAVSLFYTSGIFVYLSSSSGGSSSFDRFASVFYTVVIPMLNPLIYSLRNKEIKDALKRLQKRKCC
Excerpt: To generate a vector allowing positive selection of cell clones with a functional expression of a specific OR gene, a blasticidin resistance gene was placed downstream of SEQ ID NO: 4. The pGL4.29-CRE-Puro-OR vector generated as described in Example 1 was digested with BgIII and FseI to remove the comprised basal promoter and the complete puromycin resistance gene. The removed basal promoter sequence was amplified with the primers […] (SEQ ID NO: 28), […] (SEQ ID NO: 63), and the blasticidin S deaminase (bsd, SEQ ID NO: 64) encoding sequence was amplified by PCR using the primers […] (SEQ ID NO: 66) […] (SEQ ID NO: 67). The two overlapping PCR products were joined by fusion PCR using primers […] (SEQ ID NO: 28) and […] (SEQ ID NO: 68). The resulting DNA fragment was digested with BgIII/FseI and ligated into the digested vector to generate pGL4.29-CRE-Blast-OR.
This vector was used to generate stable cell lines as described in Example 1.
Stable clones containing a stable insertion of the pGL4.29-CRE-BLAST-OR construct with the receptor OR5AN1 (NCBI Genbank Gene ID: 390195) were then plated at a density of 3000 cells/per well in 100 μl Dubelcco's Modified Eagle medium (DMEM) in polyethyleneimide-coated, white 96 well microtiter plates with a transparent bottom. After cells were allowed to adhere for 24 h, 50 μl of medium containing different odorants (musk ketone or ethyl vanillin at 40 μM) was added to each well resulting in an odorant concentration of 13.3 μM. 6 h after odorant addition, 50 μl of medium containing blasticidin was added to reach a final concentration of 0.5-256 μg/ml in 10 two-fold dilution steps (day 1 of selection). This step further diluted the odorant to 10 μM. On day 4 of the selection (72 h after blasticidin addition), medium from each well was removed completely, 100 μl PrestoBlue® cell viability reagent (ThermoFisher Scientific, Catalog No: 14200-083) diluted in phosphate buffered saline containing 1 mg/ml glucose was added to each well and cells were incubated at 37° C. until a color change was visible in the wells containing no blasticidin. The fluorescence was determined at 560 excitation and 590 nm emission to assess relative cell metabolic activity, which is the net result of cell growth and cell killing in presence of the different blasticidin concentrations. The result was expressed as % viability relative to controls with no cells (0%) and cells treated with olfactory ligand only (100%).

`C=CCc1ccc(O)c(OC)c1` [eugenol] was tested, and the “puromycin resistance of clone 3 in presence of odorant” value [1] was “no increased resistance”.
In the case of `CC(=O)c1c(C)c([N+](=O)[O-])c(C(C)(C)C)c([N+](=O)[O-])c1C` [musk ketone], the “blasticidin resistance in presence of odorant versus solvent control” value ([2]; HEK293T OR5AN1, odorant 10 μM, blasticidin 0.5-256 μg/ml, PrestoBlue viability day 4) is reported as “increased resistance to blasticidin; also recorded: Enhanced blasticidin resistance”, the “difference in viability with versus without ligand” value ([2]; blasticidin at 32 μM (so in the source)) is reported as about 10 fold and the “surviving cells (viability) in presence of ligand” value ([2]; blasticidin at 32 μM (so in the source), odorant 10 μM, relative to no cells (0%) and ligand only (100%)) is reported as 75%. The “increase of blasticidin concentration reducing viability by 50% (EC50) in presence of ligand” value ([2]; versus absence of ligand) was over 50 fold.
